Laboratory results taken from US4695580A, “Phenylserine derivatives and processes for preparing the same” (Sumitomo Pharmaceuticals Company, Ltd., priority 1983, dated 1987).
Counter-ions that a name gives are not always drawn.

Tests used:
SRS-A = assay: Anti-SRS-A activity by Magnus method, isolated guinea pig ileum; format: cell-based; details: Cavia porcellus, read-out: Inhibition (anti-SRS-A activity, inhibition rate); for inhibition at 1 µg/mL: 5 min, drug at 10^-6 g/ml (values without *); for inhibition at 1 µM: drug at 10^-6 M (values marked *)
Experimental: Anti-SRS-A activity of the drugs (the compounds of the present invention) was assayed by using isolated ileum of guinea pig (weighing 300-400 g, male).
SRS-A sample was prepared as follows.
Male albino guinea-pigs were administered by intraperitoneal and subcutaneous injection of 50 mg ovalbumin emulsified with a half amount of Freund's complete adjuvant every other day (total three times). 4 Weeks after the administration lungs were isolated from guinea-pigs and chopped into small pieces. The tissue was placed in Tyrode solution containing indomethacin (1μg/ml) and incubated at 37° C. for 15 min. The incubated solution was then centrifuged and the supernatant fluid was used for the SRS-A sample.
The anti-SRS-A activity was assayed by Magnus method, i.e. a modified method by Eda et al. [cf. Bulletin of Pharmacology in Japan, 66, 194-213 (1970)] using isolated guinea pig ileum. That is, an isolated ileum of guinea pig was hung within an organ bath which was filled with a Tyrode solution containing mepyramine (0.4 μg/ml) and atropine (0.35,/μg/ml) at 37° C. under aeration. The SRS-A sample was given until reproducible contractions were obtained. A solution of the drug (the compounds of the present inventions was added thereto in the final concentration of 10^-6 g/ml or 10^-6 M. After 5 minutes, the SRS-A sample was again acted, and the change of contractile response was measured. Based on the change of contractile response, the anti-SRS-A activity (inhibition rate) was calculated by the following equation: [formula] wherein
a^1 : Contractile response before administration of a drug.
a^2 : Contractile response after administration of a drug.

5-lipoxygenase = biological target: T1, 5-lipoxygenase (Cavia porcellus, UniProt A0A286X958); assay: 5-Lipoxygenase inhibitory activity (inhibition of 5-HETE production) in guinea pig abdominal leucocytes; format: cell-based; details: 10 μM compound, A 23187, 14C-arachidonic acid, read-out: Inhibition (5-HETE production, inhibition rate)
T1 construct: leucocytes isolated from abdominal cavity of guinea pig; endogenous in cells; host or cells: leucocytes isolated from the abdominal cavity of guinea pig (intact cells)
T1 sequence (A0A286X958 1-674): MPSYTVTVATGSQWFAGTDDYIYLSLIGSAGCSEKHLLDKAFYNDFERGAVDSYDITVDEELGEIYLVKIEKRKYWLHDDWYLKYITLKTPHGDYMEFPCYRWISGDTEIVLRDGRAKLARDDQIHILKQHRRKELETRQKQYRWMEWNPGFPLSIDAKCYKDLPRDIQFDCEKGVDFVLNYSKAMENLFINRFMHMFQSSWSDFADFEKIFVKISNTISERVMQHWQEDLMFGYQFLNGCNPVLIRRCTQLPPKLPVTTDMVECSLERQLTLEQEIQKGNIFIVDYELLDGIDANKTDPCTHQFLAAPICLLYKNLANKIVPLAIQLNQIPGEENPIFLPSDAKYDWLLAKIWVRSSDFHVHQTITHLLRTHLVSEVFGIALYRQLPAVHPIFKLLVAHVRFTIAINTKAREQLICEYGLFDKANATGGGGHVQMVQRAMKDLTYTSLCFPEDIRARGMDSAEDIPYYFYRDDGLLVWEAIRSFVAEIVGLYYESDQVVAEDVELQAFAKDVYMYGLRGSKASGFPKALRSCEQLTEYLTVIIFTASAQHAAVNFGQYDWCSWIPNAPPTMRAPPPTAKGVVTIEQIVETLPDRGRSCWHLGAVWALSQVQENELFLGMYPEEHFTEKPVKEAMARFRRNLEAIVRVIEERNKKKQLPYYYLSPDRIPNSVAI
Experimental: The inhibitory activity was assayed in the same manner as described by J. Harvey et al. That is, leucocytes isolated from abdominal cavity of guinea pig were suspended in Krebs Ringer buffer (KRB, pH 7.4) in a concentration of 2.2×10^7 […]. The leucocytes suspension (935 μl) was preincubated with shaking at 37° C. for 10 minutes, and thereto was added a solution (10 μl) of test drugs (the compounds of the present invention) in dimethylsulfoxide (DMSO) (the final concentration of the compound being 10 μM in the solution). The mixture was incubated for 10 minutes, and then, ^14 C-arachidonic acid (0.1 μCi, 50 μl) (in 5% ethanol/KRB) and A 23187 (J. Pharmacol. Methods, 9, 147-155(1983), 5 μg in 5 μl DMSO) were added thereto, and the mixture was further incubated for 10 minutes. Ice-cooled 0.2M aqueous citric acid solution (100 μl) was added thereto in order to stop the reaction, and then, water (4 ml) was further added thereto. The mixture was twice extracted with ethyl acetate (each 2.5 ml), and the organic layer was distilled to dryness under nitrogen. The resulting residue was dissolved in ethyl acetate and the solution was applied onto a TLC plate. After developing with toluene-dioxane-acetic acid (65:34:1.5 V/V), 5-HETE (5-hydroxyeicosatetraenoic acid) produced by 5-lipoxygenase was measured with TLC scanner. The inhibition rate (%) was calculated by comparing the amount of 5-HETE between the addition and non-addition of a drug by the following equation: [formula] wherein
b^1 : Amount of produced 5-HETE in case of non-addition of a drug.
b^2 Amount of produced 5-HETE in case of addition of a drug.

## CC(C)COC(=O)[C@@H](NC(C)CCc1ccccc1)[C@H](O)c1ccc(O)c(O)c1 (relative stereo) [Compd. No. 170, DL-threo-3-(3,4-dihydroxyphenyl)-N-(1-methyl-3-phenylpropyl)serine isobutyl ester]
SRS-A
  inhibition at 1 µg/mL: 85%

## O=C([C@@H](NCCCc1ccccc1)[C@H](O)c1ccc(O)c(O)c1)N1CCCC1 (relative stereo) [Compd. No. 13]
SRS-A
  inhibition at 1 µM: 100%

## COC(=O)[C@H](NC(C)CCc1ccccc1)[C@@H](O)c1ccc(O)c(O)c1 (stereo partly drawn) [Compd. No. 156, D-threo-3-(3,4-dihydroxyphenyl)-N-(1-methyl-3-phenylpropyl)serine methyl ester]
SRS-A
  inhibition at 1 µg/mL: 90%

## CC(CCc1ccccc1)N[C@H](C(N)=O)[C@H](O)c1ccc(O)c(O)c1 (relative stereo) [compound 177, DL-threo-3-(3,4-dihydroxphenyl)-N-(1-methyl-3-phenylpropyl)serine amide]
SRS-A
  inhibition at 1 µg/mL: 86%

## CC(CCc1ccccc1)N[C@H](C(=O)N1CCCC1)[C@H](O)c1ccc(O)c(O)c1 (relative stereo) [Compd. No. 19, DL-Threo-3-(3,4-dihydroxyphenyl)-N-(1-methyl-3phenylpropyl)serine pyrrolidine amide]
5-lipoxygenase
  inhibition at 10 µM: > 70%
SRS-A
  inhibition at 1 µg/mL: 100%

## CC(CCc1ccccc1)N[C@H](CO)[C@H](O)c1ccc(O)c(O)c1 (relative stereo) [Compd. No. 183, DL-threo-1-(3,4-dihydroxyphenyl)-2-(1-methyl-3-phenylpropyl)amino-1,3-propanediol 1/2 oxalate]
5-lipoxygenase
  inhibition at 10 µM: > 70%
SRS-A
  inhibition at 1 µg/mL: 97%

## COC(=O)[C@@H](NC(C)CCC(C)C)[C@H](O)c1ccc(O)c(O)c1 (relative stereo) [compound 142]
5-lipoxygenase
  inhibition at 10 µM: > 70%
SRS-A
  inhibition at 1 µg/mL: 91%

## COC(=O)[C@@H]1CCCN1C(=O)[C@@H](NC(C)CCc1ccccc1)[C@H](O)c1ccc(O)c(O)c1 (some centres unmarked) [compound 65]
SRS-A
  inhibition at 1 µM: 85%

## CC(CCc1ccccc1)N[C@H](C(=O)OC(C)C)[C@H](O)c1ccc(O)c(O)c1 (relative stereo) [Compd. No. 158, DL-threo-3-(3,4-dihydroxyphenyl)-N-(1-methyl-3-phenylpropyl)serine isopropyl ester]
SRS-A
  inhibition at 1 µg/mL: 96%

## COC(=O)[C@@H](NC(C)CCc1ccccc1)[C@H](O)c1ccc(O)c(O)c1 (relative stereo) [Compd. No. 120, DL-threo-3-(3,4-dihydroxyphenyl)-N-(1-methyl-3-phenylpropyl)serine methyl ester]
SRS-A
  inhibition at 1 µg/mL: 97%

## COc1cc(C)c(CCC(C)N[C@H](C(=O)N2CCCC2)[C@H](O)c2ccc(O)c(O)c2)c(C)c1C (some centres unmarked) [compound 28]
SRS-A
  inhibition at 1 µM: 94%

## CC(CCc1ccccc1)N[C@H](C(=O)NN)[C@H](O)c1ccc(O)c(O)c1 (relative stereo) [Compd. No. 178, DL-threo-3-(3,4-dihydroxyphenyl)-N-(1-methyl-3-phenylpropyl)serine hydrazide]
SRS-A
  inhibition at 1 µg/mL: 81%

## COC(=O)[C@@H](NC(C)CCCCC(=O)Nc1ccc(C(F)(F)F)cc1)[C@H](O)c1ccc(O)c(O)c1 (relative stereo) [compound 146]
SRS-A
  inhibition at 1 µg/mL: 94%

## CCCCc1ccc(NC(=O)CCCCC(C)N[C@H](C(=O)OC)[C@H](O)c2ccc(O)c(O)c2)cc1 (relative stereo) [compound 147]
SRS-A
  inhibition at 1 µg/mL: 100%

## CCOC(=O)[C@@H](NC(C)CCc1ccccc1)[C@H](O)c1ccc(O)c(O)c1 (relative stereo) [Compd. No. 132, DL-Threo-3-(3,4-dihydroxyphenyl)-N-(1-methyl-3-phenylpropyl)serine ethyl ester]
5-lipoxygenase
  inhibition at 10 µM: > 70%
SRS-A
  inhibition at 1 µg/mL: 82%

## CC(CCc1cccc2ccccc12)N[C@H](C(=O)N1CCCC1)[C@H](O)c1ccc(O)c(O)c1 (some centres unmarked) [compound 34]
SRS-A
  inhibition at 1 µM: 92%

## CC(CCc1ccccc1)N[C@H](C(=O)N1CCCC1)[C@H](O)c1ccc(O)c(O)c1 (stereo partly drawn) [Compd. No. 10, L-Threo-3-(3,4-dihydroxyphenyl)-N-(1-methyl-3-phenylpropyl)serine pyrrolidine amide]
SRS-A
  inhibition at 1 µM: 100%

## CC(CCc1ccco1)N[C@H](C(=O)N1CCCC1)[C@H](O)c1ccc(O)c(O)c1 (some centres unmarked) [compound 35]
SRS-A
  inhibition at 1 µM: 87%

## CC(CCc1ccccc1)N[C@H](C(=O)N1CCc2ccccc21)[C@H](O)c1ccc(O)c(O)c1 (relative stereo) [compound 77]
5-lipoxygenase
  inhibition at 10 µM: > 70%
SRS-A
  inhibition at 1 µM: 96%

## CC(CCc1ccc(F)cc1)N[C@H](C(=O)N1CCCC1)[C@H](O)c1ccc(O)c(O)c1 (some centres unmarked) [compound 29]
SRS-A
  inhibition at 1 µM: 97%

## COC(=O)[C@@H](NC(C)CCc1ccc(OC)cc1)[C@H](O)c1ccc(O)c(O)c1 (relative stereo) [Compd. No. 122, DL-threo-3-(3,4-dihydroxyphenyl)-N-[1-methyl-3-(p-methoxyphenyl)propyl]serine methyl ester]
5-lipoxygenase
  inhibition at 10 µM: > 70%
SRS-A
  inhibition at 1 µg/mL: 94%

## CC(CCc1ccccc1)N[C@H](COC(N)=O)[C@H](O)c1ccc(O)c(O)c1 (relative stereo) [Compd. No. 189, DL-threo-1-(3,4-dihydroxyphenyl)-2-(1-methyl-3-phenylpropyl)-amino-3-carbamoyloxypropanol]
SRS-A
  inhibition at 1 µg/mL: 98%

## COC(=O)[C@@H](NC(C)CCc1ccc(O)cc1)[C@H](O)c1ccc(O)c(O)c1 (relative stereo) [compound 143]
SRS-A
  inhibition at 1 µg/mL: 83%

## CNC(=O)[C@@H](NC(C)CCc1ccccc1)[C@H](O)c1ccc(O)c(O)c1 (relative stereo) [compound 48]
SRS-A
  inhibition at 1 µg/mL: 100%

## CCCCc1ccc(NC(=O)CCCCC(C)N[C@H](C(=O)N2CCCC2)[C@H](O)c2ccc(O)c(O)c2)cc1 (some centres unmarked) [compound 41]
SRS-A
  inhibition at 1 µM: 81%

## CC(CCCCC(=O)Nc1ccc(C(F)(F)F)cc1)N[C@H](C(=O)N1CCCC1)[C@H](O)c1ccc(O)c(O)c1 (some centres unmarked) [compound 42]
SRS-A
  inhibition at 1 µM: 97%
